Measured values from US6506772B1, “Substituted [1,2,4]triazolo[1,5a]pyridine derivatives with activity as adenosine receptor ligands” (Hoffmann-La Roche Inc., priority 2000, dated 2003).
Read-outs that look alike come from different tables or passages of the source.

Columns and labels:
[1] = target: T1, human adenosine A2A receptor (Homo sapiens, UniProt P29274); test: Human adenosine A2A receptor [3H]-SCH-58261 binding assay; settings: for Ki: affinity to human adenosine A2A receptor, read-out: Ki HA2A; for selectivity (A1/A2a): calculated ratio of the affinity to the HA1 receptor to the HA2a receptor
T1 construct: expressed in transfected cells; host or cells: CHO cells, Semliki Forest virus expression system; membrane preparation
T1 sequence (P29274 whole entry): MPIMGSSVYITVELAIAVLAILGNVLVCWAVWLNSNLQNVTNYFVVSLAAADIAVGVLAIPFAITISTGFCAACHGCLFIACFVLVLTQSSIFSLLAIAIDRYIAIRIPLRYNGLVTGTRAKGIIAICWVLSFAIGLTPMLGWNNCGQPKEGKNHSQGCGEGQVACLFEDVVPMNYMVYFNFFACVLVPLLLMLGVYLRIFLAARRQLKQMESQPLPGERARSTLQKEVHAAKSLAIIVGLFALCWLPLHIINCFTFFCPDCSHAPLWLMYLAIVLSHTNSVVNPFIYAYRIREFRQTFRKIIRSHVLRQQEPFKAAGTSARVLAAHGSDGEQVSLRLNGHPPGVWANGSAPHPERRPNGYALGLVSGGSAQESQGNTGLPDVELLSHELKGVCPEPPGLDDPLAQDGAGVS
Protocol: Human Adenosine A2A Receptor
The human adenosine A2A receptor was recombinantly expressed in chinese hamster ovary (CHO) cells using the semliki forest virus expression system. Cells were harvested, washed twice by centrifugation, homogenized and again washed by centrifugation. The final washed membrane pellet was suspended in a Tris (50 mM) buffer containing 120 mM NaCl, 5 mM KCl, 2 mM CaCl2 and 10 MM MgCl2 (pH 7.4) (buffer A). […] Compounds were tested at 10 concentrations from 10 μM-0.3 nM. All assays were conducted in duplicate and repeated at least two times. Assay plates were incubated for 1 hour at room temperature before centrifugation and then bound ligand determined using a Packard Topcount scintillation counter. IC50 values were calculated using a non-linear curve fitting program and Ki values calculated using the Cheng-Prussoff equation.

[2] = target: T2, HA1 adenosine receptor (Homo sapiens, UniProt P30542); test: Human adenosine A1 receptor affinity (Ki hA1); format: binding
T2 sequence (P30542 1-326): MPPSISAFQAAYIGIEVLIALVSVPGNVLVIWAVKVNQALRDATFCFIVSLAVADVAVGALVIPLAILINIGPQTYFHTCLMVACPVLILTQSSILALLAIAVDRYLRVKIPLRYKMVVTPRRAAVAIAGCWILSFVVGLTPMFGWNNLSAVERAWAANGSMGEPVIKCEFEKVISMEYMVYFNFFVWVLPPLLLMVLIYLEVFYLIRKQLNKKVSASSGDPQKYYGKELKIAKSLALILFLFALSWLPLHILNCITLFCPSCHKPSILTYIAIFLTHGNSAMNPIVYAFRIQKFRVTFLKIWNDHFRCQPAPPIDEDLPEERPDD

[3] = affinity to human adenosine A1 receptor

Row | SMILES | Ki [1] | selectivity (A1/A2a) [1] | Ki [2, 3] | Ki [2]
1 | CCN(C(=O)c1cc(N)n2nc(-c3ccc(C)s3)nc2c1)C1CCCCC1 [Example 24, 5-Amino-2-(5-methyl-thiophen-2-yl)-[1,2,4]triazolo[1,5-a]pyridine-7-carboxylic acid cyclohexyl-ethyl-amide] | 8.9 nM | 27.8 | 247 nM | 
2 | Nc1cc(C(=O)N2CCCC2)cc2nc(-c3nccs3)nn12 [Example 25, (5-Amino-2-thiazol-2-yl-[1,2,4]triazolo[1,5-a]pyridin-7-yl)-pyrrolidin-1-yl-methanone] | 50.4 nM | 61.5 | 3100 nM | 
3 | CC(C)N(Cc1ccccc1)C(=O)c1cc(N)n2nc(-c3ccc(Br)o3)nc2c1 [Example 26, 5-Amino-2-(5-bromo-furan-2-yl)-[1,2,4]triazolo[1,5-a]pyridine-7-carboxylic acid benzyl-isopropyl-amide] | 2.3 nM | 13.0 | 30.1 nM | 
4 | CCN(Cc1ccccc1)C(=O)c1cc(N)n2nc(-c3ccccn3)nc2c1 [Example 29, 5-Amino-2-pyridin-2-yl-[1,2,4]triazolo[1,5-a]pyridine-7-carboxylic acid benzyl-ethyl-amide] | 15.9 nM | 15.3 | 244 nM | 
5 | Nc1cc(C(=O)N2CCc3ccccc3C2)cc2nc(-c3ccccn3)nn12 [Example 30, (5-Amino-2-pyridin-2-yl-[1,2,4]triazolo[1,5-a]pyridin-7-yl)-(3,4-dihydro-1H-isoquinolin-2-yl)-methanone] | 212 nM | 10.1 | 2140 nM | 
6 | CCN(C(=O)c1cc(N)n2nc(-c3ccccn3)nc2c1)C1CCCCC1 [Example 31, 5-Amino-2-pyridin-2-yl-[1,2,4]triazolo[1,5-a]pyridine-7-carboxylic acid cyclohexyl-ethyl-amide] | 49.6 nM | 22.7 | 1130 nM | 
7 | CN(Cc1ccccc1)C(=O)c1cc(N)n2nc(-c3ccccn3)nc2c1 [Example 32, 5-Amino-2-pyridin-2-yl-[1,2,4]triazolo[1,5-a]pyridine-7-carboxylic acid benzyl-methyl-amide] | 28.6 nM | 10.1 | 288 nM | 
8 | CN(C(=O)c1cc(N)n2nc(-c3ccccn3)nc2c1)C1CCCCC1 [Example 33, 5-Amino-2-pyridin-2-yl-[1,2,4]triazolo[1,5-a]pyridine-7-carboxylic acid cyclohexyl-methyl-amide] | 87 nM | 13.5 | 1170 nM | 
9 | Nc1cc(C(=O)N2CCCCC2)cc2nc(-c3ccccn3)nn12 [Example 34, (5-Amino-2-pyridin-2-yl-[1,2,4]triazolo[1,5-a]pyridin-7-yl)-piperidin-1-yl-methanone] | 154 nM | 38.8 | 5980 nM | 
10 | CCN(CC)C(=O)c1cc(N)n2nc(-c3ccccn3)nc2c1 [Example 35, 5-Amino-2-pyridin-2-yl-[1,2,4]triazolo[1,5-a]pyridine-7-carboxylic acid diethylamide] | 106 nM | 27.5 | 2920 nM | 
11 | CCCCN(Cc1ccccc1)C(=O)c1cc(N)n2nc(-c3ccccn3)nc2c1 [Example 36, 5-Amino-2-pyridin-2-yl-[1,2,4]triazolo[1,5-a]pyridine-7-carboxylic acid benzyl-butyl-amide] | 13.1 nM | 15.2 | 199 nM | 
12 | Nc1cc(C(=O)NCc2ccccc2Br)cc2nc(-c3ccccn3)nn12 [Example 38, 5-Amino-2-pyridin-2-yl-[1,2,4]triazolo[1,5-a]pyridine-7-carboxylic acid 2-bromo-benzylamide] | 23.8 nM | 4.6 | 109 nM | 
13 | Nc1cc(C(=O)N2CCCC2)cc2nc(-c3cccs3)nn12 [Example 128, (5-Amino-2-thiophen-2-yl-[1,2,4]triazolo[1,5-a]pyridin-7-yl)-pyrrolidin-1-yl-methanone] |  |  | 1480 nM | 
14 | CCCN(C)C(=O)c1cc(N)n2nc(-c3ccc(Br)o3)nc2c1 [Example 268, 5-Amino-2-(5-bromo-furan-2-yl)-[1,2,4]triazolo[1,5-a]pyridine-7-carboxylic acid methyl-propyl-amide] |  |  | 275 nM | 
15 | CC1CCCN1C(=O)c1cc(N)n2nc(-c3ccc(Br)o3)nc2c1 (stereo not shown) [Example 270, [5-Amino-2-(5-bromo-furan-2-yl)-[1,2,4]triazolo[1,5-a]pyridin-7-yl]-(2-methyl-pyrrolidin-1-yl)-methanone] |  |  | 286 nM | 
16 | CC1CCCN(C(=O)c2cc(N)n3nc(-c4ccc(Br)o4)nc3c2)C1 (stereo not shown) [Example 295, [5-Amino-2-(5-bromo-furan-2-yl)-[1,2,4]triazolo[1,5-a]pyridin-7-yl]-(3,-methyl-piperidin-1-yl)-methanone] |  |  | 130 nM | 
17 | Nc1cc(C(=O)N2CCSCC2)cc2nc(-c3ccc(Br)o3)nn12 [Example 297, [5-Amino-2-(5-bromo-furan-2-yl)-[1,2,4]triazolo[1,5-a]pyridin-7-yl]-thiomorpholin-4-yl-methanone] |  |  | 253 nM | 
18 | CN(CCc1ccccc1)C(=O)c1cc(N)n2nc(-c3ccc(Br)o3)nc2c1 [Example 306, 5-Amino-2-(5-bromo-furan-2-yl)-[1,2,4]triazolo[1,5-a]pyridine-7-carboxylic acid methyl-phenethyl-amide] |  |  | 87.8 nM | 
19 | CC1CCCCN1C(=O)c1cc(N)n2nc(-c3ccc(Br)o3)nc2c1 (stereo not shown) [Example 336, [5-Amino-2-(5-bromo-furan-2-yl)-[1,2,4]triazolo[1,5-a]pyridin-7-yl]-(2-methyl-piperidin-1-yl)-methanone] |  |  | 65.7 nM | 
20 | CCN(CCc1ccccn1)C(=O)c1cc(N)n2nc(-c3ccc(Br)o3)nc2c1 [Example 352, 5-Amino-2-(5-bromo-furan-2-yl)-[1,2,4]triazolo[1,5-a]pyridine-7-carboxylic acid ethyl-(2-pyridin-2-yl-ethyl)-amide] |  |  | 144 nM | 
21 | CCN(CC)C(=O)C1CCCN(C(=O)c2cc(N)n3nc(-c4ccc(Br)o4)nc3c2)C1 (stereo not shown) [Example 356, 1-[5-Amino-2-(5-bromo-furan-2-yl)-[1,2,4]triazolo[1,5-a]pyridin-7-carbonyl]-piperidine-3-carboxylic acid diethylamide] |  |  | 1060 nM | 
22 | CN(C)C(=O)CN(C)C(=O)c1cc(N)n2nc(-c3ccc(Br)o3)nc2c1 [Example 384, 5-Amino-2-(5-bromo-furan-2-yl)-[1,2,4]triazolo[1,5-a]pyridine-7-carboxylic acid dimethylcarbamoylmethyl-methyl-amide] |  |  |  | 711 nM
23 | COC[C@@H]1CCCN1C(=O)c1cc(N)n2nc(-c3ccc(Br)o3)nc2c1 [Example 385, [5-Amino-2-(5-bromo-furan-2-yl)-[1,2,4]triazolo[1,5-a]pyridin-7-yl]-(S-2-methoxymethyl-pyrrolidin-1-yl)-methanone] |  |  |  | 616 nM
24 | COC[C@H]1CCCN1C(=O)c1cc(N)n2nc(-c3ccc(Br)o3)nc2c1 [Example 386, [5-Amino-2-(5-bromo-furan-2-yl)-[1,2,4]triazolo[1,5-a]pyridin-7-yl]-(R-2-methoxymethyl-pyrrolidin-1-yl)-methanone] |  |  |  | 292 nM
25 | Nc1cc(C(=O)N2CCCC2)cc2nc(-c3ccccn3)nn12 [Example 410, (5-Amino-2-pyridin-2-yl-[1,2,4]triazolo[1,5-a]pyridin-7-yl)-pyrrolidin-1-yl-methanone] |  |  |  | 1450 nM
